From ChEMBL document CHEMBL4316608, “Artemisinin-indole and artemisinin-imidazole hybrids: Synthesis, cytotoxic evaluation and reversal effects on multidrug resistance in MCF-7/ADR cells” (Bioorg Med Chem Lett, 2019) come the findings set out here.

Molecules are shown by their SMILES.

One series has as its system A549. The series is described as follows: Antiproliferative activity against human A549 cells measured after 48 hrs by MTT assay. In kind it is functional, cell-based. The following applies: A549, 48 h. In general terms: Formazan colour is commonly taken as a measure of viable cells.
For the next series, the system named is ADR5000 cell line. The series is described as follows: Cytotoxicity against human CEM/ADR5000 cells by XTT assay. The format is functional, cell-based.
The next series deals with HepG2. The series is described as follows: Antiproliferative activity against human HepG2 cells measured after 48 hrs by MTT assay. In kind it is functional, cell-based. The settings on record: HepG2, 48 h.
The subject of series [1] is MCF7. The series is described as follows: Antiproliferative activity against human MCF7 cells measured after 48 hrs by MTT assay. The format is functional, cell-based. The settings on record: MCF7, 48 h.
The test system of a further series is MDA-MB-231. The series is described as follows: Antiproliferative activity against human MDA-MB-231 cells measured after 48 hrs by MTT assay. The settings on record: MDA-MB-231, 48 h. The format is functional, cell-based.
A further series relates to L02. The series is described as follows: Cytotoxicity against human L02 cells measured after 48 hrs by MTT assay. In kind it is cell-based. The settings on record: L02, 48 h.
The subject of a further series is CCRF-CEM. The series is described as follows: Cytotoxicity against human CCRF-CEM cells by XTT assay. In kind it is functional, cell-based.
For series [2], the system named is MCF7. The series is described as follows: Cell cycle arrest in human MCF7 cells assessed as accumulation at G2 phase at 2.5 uM measured after 48 hrs by propidium iodide staining based flow cytometry (reference value: 23.25%). The format is functional. A general note: A flow cytometer gives signals particle by particle.
The test system of series [3] is MCF7. The series is described as follows: Cell cycle arrest in human MCF7 cells assessed as accumulation at S phase at 2.5 uM measured after 48 hrs by propidium iodide staining based flow cytometry (reference value: 24.31%). The format is functional.
Series [4] deals with MCF7. The series is described as follows: Cell cycle arrest in human MCF7 cells assessed as accumulation at G2 phase at 5 uM measured after 48 hrs by propidium iodide staining based flow cytometry (reference value: 23.25%). The format is functional.
A further series concerns NCI/ADR-RES. The series is described as follows: Potentiation of adriamycin-induced antiproliferative activity against human MCF7/ADR cells assessed as fold reduction in adriamycin IC50 at 5 uM measured after 48 hrs by MTT assay. The format is functional.
Series [5] relates to MCF7. The series is described as follows: Potency index, ratio of artemisinin IC50 to test compound IC50 for human MCF7 cells. In kind it is functional.
For series [6], the system named is MCF7. The series is described as follows: Cell cycle arrest in human MCF7 cells assessed as accumulation at G1 phase at 2.5 uM measured after 48 hrs by propidium iodide staining based flow cytometry (reference value: 52.44%). The format is functional.
The subject of series [7] is MCF7. The series is described as follows: Cell cycle arrest in human MCF7 cells assessed as accumulation at G1 phase at 5 uM measured after 48 hrs by propidium iodide staining based flow cytometry (reference value: 52.44%). In kind it is functional.
The subject of series [8] is MCF7. The series is described as follows: Cell cycle arrest in human MCF7 cells assessed as accumulation at G1 phase at 10 uM measured after 48 hrs by propidium iodide staining based flow cytometry (reference value: 52.44%). In kind it is functional.
Series [9] deals with MCF7. The series is described as follows: Cell cycle arrest in human MCF7 cells assessed as accumulation at S phase at 10 uM measured after 48 hrs by propidium iodide staining based flow cytometry (reference value: 24.31%). In kind it is functional.
Series [10] is described as follows: Toxicity in human MCF7 cells assessed as inhibition of cell proliferation at 5 uM measured after 48 hrs by MTT assay. In kind it is cell-based.
Series [11] relates to MCF7. The series is described as follows: Cell cycle arrest in human MCF7 cells assessed as accumulation at S phase at 5 uM measured after 48 hrs by propidium iodide staining based flow cytometry (reference value: 24.31%). The format is functional.
The subject of series [12] is MCF7. The series is described as follows: Cell cycle arrest in human MCF7 cells assessed as accumulation at G2 phase at 10 uM measured after 48 hrs by propidium iodide staining based flow cytometry (reference value: 23.25%). The format is functional.

For the molecule `C[C@H]1[C@@H](O)O[C@@H]2O[C@@]3(C)CC[C@H]4[C@H](C)CC[C@@H]1[C@@]24OO3` [ARTENIMOL], the half-inhibitory concentration (IC50) was determined as 45.3 µM with A549; 1.84 µM in the series with ADR5000 cell line; 31.7 µM in the series on HepG2; 34.3 µM with MCF7 [1]; 58.7 µM in the series with MDA-MB-231; 40.2 µM in the series with L02. Further, the IC50 in the series on CCRF-CEM was found to be 0.87 µM.

Take `C[C@@H]1CC[C@H]2[C@@H](C)C(OC(=O)c3c[nH]c4ccc(Cl)cc34)O[C@@H]3O[C@@]4(C)CC[C@@H]1[C@]32OO4` (some centres undefined): the Activity is 27.4% with MCF7 [2]; 24.24% in the series with MCF7 [3]; 34.35% in the series with MCF7 [4]; 48.36% in the series with MCF7 [6]; 43.76% in the series with MCF7 [7]; 39.61% in the series with MCF7 [8]. In addition, the Activity was 21.41% in the series with MCF7 [9], 21.89% in the series with MCF7 [11] and 38.97% with MCF7 [12]. Also, the 50% inhibitory concentration (IC50) in the series on A549 was 6.17 µM; in the series on HepG2 it was 10.8 µM; in the series on MCF7 [1] it was 5.25 µM; with MDA-MB-231, greater than 100 µM; in the series with L02, 31 µM. For the same molecule, in the series with NCI/ADR-RES, the “fold change (FC)” value was 117. Besides, the “Ratio IC50” value in the series on MCF7 [5] turned out to be 10. For the same molecule, the inhibition at 48 h, 5 µM in series [10] was determined as 32.1%.

A word on the IC50: it is the concentration at which inhibition is half-maximal. For orientation: inhibition means the drop in the measured response relative to a control, in per cent.
